# Legend:
# [1] = test system: PD-1 expression on CD4+ and CD8+ T cells; assay: Flow cytometry of PD-1 on T cells without HIV-1 (IND02-trimer alone); format: cell-based, human; conditions: no HIV-1, day 9 post exposure
# [2] = test system: HIV-1 92UG029 (A-X4); assay: PBMC antiviral assay (RT activity), HIV-1 92UG029; format: cell-based; conditions: Human immunodeficiency virus 1, PBMC, 168 h; PHA-P-activated PBMCs, 125 TCID50, day 7, RT activity
# Protocol: In order to confirm antiretroviral activity of the compounds, using a cell model closer to the pathophysiology, Peripheral Blood Mononuclear Cells (PBMCs) were separated from a buffy-coat from healthy HIV-, HCV-, HBV-seronegative blood donors by Ficoll-Hypaque density gradient centrifugation. The PBMCs were activated by incubation with 1 μg/ml phytohemagglutinin-P (PHA-P; Difco Laboratories) for three days in RPMI 1640 medium supplemented with 10% heat-inactivated fetal calf serum (FCS, +56 ◦C for 45 min), 2mM l-glutamine and a 1% antibiotic cocktail (penicillin, streptomycin, neomycin). After this mitogen activation, PBMCs were cultivated in the same culture medium supplemented with recombinant human interleukin-2 (rHuIL-2; 20 IU/mL) and treated and/or infected. […] All these viruses were amplified in vitro with PHA-P-activated blood mononuclear cells and 50% tissue culture infectious doses (TCID50) were calculated using Kärber’s formula [37], after limited-dilution titration. […] Viral replication was measured by quantifying reverse transcriptase (RT) activity in the cell culture supernatants using the Lenti RT Activity Kit (Cavidi) and AZT was used as reference anti-HIV-1 molecule. EC50 were then calculated and expressed in μM.
# [3] = molecular target: T1, MN gp120 binding to heparan sulfate (HS) (Human immunodeficiency virus type 1 group M subtype B, UniProt P05877); assay: biochemical; design: species or system HIV-1
# T1 construct: MN gp120 (50 μg/ml in 5 mM maleate buffer, pH 6); purchased Immunodiagnostics (Massachusetts, USA)
# Protocol: For that purpose, CM4 sensorchips were activated with 50 μL of 0.2 M N-ethyl-N’-([…])-carbodiimide (EDC) and 0.05 M N-hydroxy-succimide (NHS) at 5 μL/min. Then soluble CD4 (10 μg/mL in 10 mM acetate buffer, pH 5), streptavidin (200 μg/mL in 10 mM acetate buffer, pH 4.2), mAb 17b (5 μg/mL in 10 mM acetate buffer, pH 5), MN gp120 (50 μg/ml in 5 mM maleate buffer, pH 6) or YU2 gp120 (50μg/mL in 10 mM acetate buffer, pH 4.8) were injected at 5 μL/min over one of the EDC/NHS activated flow cell until levels of 1200 (for sCD4), 700 (for mAb 17b), 3000 (for streptavidin), or 4500 (for gp120s) response units (RU) were achieved. HS (1 mM in phosphate-buffered saline) was biotinylated through its reducing end by reductive amination with 10 mM of biotin-LC-Hydrazine (Pierce) and captured on the streptavidin surface (20 μg/mL in 10 mM Hepes buffer pH 7.4 and 0.3 M NaCl) to a level of 60–80 RU as described. Surfaces were then blocked with 1M ethanolamine (pH 8.5) for 5 minutes.
# CD4, mAb 17b and gp120 surfaces were regenerated by 1 min injection of 10 mM HCl and the HS surface was regenerated with a 1 min injection of 0.05% SDS followed by a 3 min injection of 2 M NaCl.
# [4] = test system: HIV-1 LAI; assay: MAGI assay, HIV-1 LAI; format: cell-based; conditions: Human immunodeficiency virus 1, MAGI cells
# Protocol: (§1) Briefly, target cells (HeLa CD4/CCR5-LTR/β-gal; 10^4/well) were plated in 96-well flat microtiter culture plates. […] The test drugs were added initially and viruses were immediately inoculated onto the cells. Forty-eight hours after viral exposure, all blue cells in each well were counted. The cytotoxicity of the compound was determined by the MTT method as previously described. All experiments were performed in triplicate and AZT was used as reference anti-HIV-1 molecule.
# [5] = test system: PD-1 expression on CD4+ and CD8+ T cells; assay: Flow cytometry of PD-1 on T cells of HIV-1-infected PBMCs; format: cell-based, human; conditions: day 9 post infection
# Text: (§2) PBMCs (1 x 10^6/ml) were infected with 100 TCID50 of various HIV-1 strains (92UG037: primary R5-tropic strain; YU2B and BaL: R5-tropic lab strains, 93BR020: dual-tropic primary isolate; NL4-3: X4-tropic lab strain) and simultaneously treated with a range of concentrations of IND02-trimer in 24-well plates (Greiner) in duplicates. Cells were washed, fixed (4% paraformaldehyde) and stained on several days post infection (1-4-9-13-19) using the following mAbs against PD-1-Brilliant Violet 421, CD3-FITC, Tim-3-PE, CD4-PE-Cy7 (all from Biolegend) and CD8-APC (Miltenyi). Multicolor flow cytometric analyses were performed on a FACS Verse (BD Biosciences).
# (§3) Fig 5 Reduction of Tim-3 (left) and PD1 (right) expression on HIV-1 and IND02-trimer-treated CD8^+ (A) and CD4^+ (B) T cells. Stimulated PBMCs were simultaneously incubated with 0.4 to 40 μg/ml (0.46–46.3 μM) IND02-trimer and HIV-1 (92UG037, BaL, YU2b, 93BR020 or NL4-3). Up-regulation of Tim-3 (left) and PD-1 (right) on CD8^+ (A) and CD4^+ (B) T cells was impeded by the IND02-trimer, as shown by multicolour FACS analyses of live T cells on day 9 post co-treatment. Experiments were repeated in 4–5 independent experiments with cells from different donors and statistical differences were analyzed by the GraphPad prism software using the unpaired student’s t-test (2-tailed).
# [6] = test system: Tim-3 expression on CD4+ and CD8+ T cells; assay: Flow cytometry of Tim-3 on T cells of HIV-1-infected PBMCs; format: cell-based, human; conditions: day 9 post infection
# Text: as §2, §3
# [7] = Water solubility; format: physicochemical
# [8] = test system: HeLa CD4/CCR5-LTR/β-gal cells; assay: Cytotoxicity by MTT method (MAGI cells); format: cell-based; conditions: concentrations up to 100 μg/ml (115.7 μM)
# Protocol: as §1
# [9] = Cytotoxicity by MTT method (MAGI cells); format: cell-based; conditions: human, HeLa CD4/CCR5-LTR/β-gal cells (MAGI cells); MTT, mean of triplicate ± SD
# Protocol: as §1
structure (smiles),measurement,setting,value
"Oc1cc(O)c2c(c1)O[C@@]1(c3ccc(O)c(O)c3)Oc3cc(O)c4c(c3[C@@H]2[C@H]1O)O[C@H](c1ccc(O)c(O)c1)[C@H](O)[C@H]4c1c(O)cc(O)c2c1O[C@H](c1ccc(O)c(O)c1)[C@H](O)C2 [IND02-trimer, cinnamtannin B1]",% CD4+/PD-1+,[1]; 2 μg/ml / 2.31 μM,35.0%
same,% CD8+/PD-1,[1]; 2 μg/ml / 2.31 μM,23.5%
same,% CD4+/PD-1+,[1]; 4 μg/ml / 4.6 μM,32.1%
same,% CD8+/PD-1,[1]; 4 μg/ml / 4.6 μM,23.7%
same,% CD4+/PD-1+,[1]; 20 μg/ml / 23.1 μM,32.0%
same,% CD8+/PD-1,[1]; 20 μg/ml / 23.1 μM,23.9%
same,% CD4+/PD-1+,[1]; 40 μg/ml / 46 μM,32.7%
same,% CD8+/PD-1,[1]; 40 μg/ml / 46 μM,23.5%
same,EC50,[2],2.3 µM
same,IC50,[3],7.5 ± 3.5 µM
same,EC50,[4],3.4 mg/L
same,EC50,"[4]; 48 h, mean of triplicate ± SD",3.9 ± 1.6 µM
same,PD-1 expression on CD8+ T cells versus infected control cells,"[5]; HIV-1-exposed PBMCs, all concentrations tested (0.4 to 40 μg/ml)",significantly reduced
same,PD-1 expression on CD4+ T cells versus infected control cells,[5]; HIV-1-infected PBMCs,decreased
same,Tim-3 expression on CD8+ T cells versus infected control cells,"[6]; HIV-1-infected PBMC cultures, 0.4 to 40 μg/ml (0.46–46.3 μM)",significantly lower expression
same,Tim-3 expression on CD4+ T cells versus infected control cells,[6]; HIV-1-infected PBMCs,decreased
same,water solubility,[7],water-soluble
same,cytotoxicity,[8],did not show cytotoxicity
same,CC50,[9],96 ± 4 µM

# Reference: paper PMC5082894 (PLoS ONE, 2016)
